From patent US6407109B1, “Pyrrolyl tetrahydroquinoxalin diones, their production and use in the treatment of diseases” (Abbott Laboratories, priority 1995, dated 2002) come the findings set out here.

Structures are written as SMILES.

Usually melting point stands for the temperature, or range, at which the solid turns liquid. By Ki is commonly meant a dissociation constant, usually derived from enzyme kinetics or from competition with a known ligand.

Tested on in the first data set: not given
Test: not given
Settings: not given
`CCOC(=O)Cn1c(=O)c(=O)[nH]c2cc([N+](=O)[O-])c(-n3ccc(C(=O)NCc4ccc([N+](=O)[O-])cc4)c3)cc21` had a melting point above 300 °C. Regarding `O=C(O)Cn1c(=O)c(=O)[nH]c2cc([N+](=O)[O-])c(-n3ccc(C(=O)NCc4ccc([N+](=O)[O-])cc4)c3)cc21`, the melting point was > 210 °C (dec.).

Consider `CCOC(=O)Cn1c(=O)c(=O)[nH]c2ccc3ccc(-n4ccc(C(=O)O)c4)cc3c21` [Example 3, 9-(3-Carboxy-1-pyrrolyl)-1-(ethoxycarbonylmethyl)benzo[f]-quinoxaline-2,3(1H,4H)-dione], for which the melting point was 292 to 295 °C. Take `CCOC(=O)Cn1c(=O)c(=O)[nH]c2cc([N+](=O)[O-])c(-n3ccc(C(=O)NCc4ccccc4)c3)cc21` [Example 8, 7-(3-Benzylcarbamoyl-1-pyrrolyl)-1-ethoxycarbonylmethyl-6-nitro-quinoxaline-2,3(1H,4H)-dione]: the melting point was 223 °C (dec.). The same measure, in the same setting: the value for `CCOC(=O)Cn1c(=O)c(=O)[nH]c2cc([N+](=O)[O-])c(-n3ccc(C(=O)NCc4ccncc4)c3)cc21` [Example 11, 1-Ethoxycarbonylmethyl-6-nitro-7-(3-(4-pyridinylmethylcarbamoyl)-1-pyrrolyl)quinoxaline-2,3(1H,4H)-dione] was above 300 °C; that for `O=C(O)Cn1c(=O)c(=O)[nH]c2ccc3c(-n4ccc(C(=O)O)c4)cccc3c21` [Example 15, 1-Carboxymethyl-7-(3-carboxy-1-pyrrolyl)benzo[f]quinoxaline-2,3(1H, 4H)-dione] was above 300 °C; that for `O=C(O)Cn1c(=O)c(=O)[nH]c2cc([N+](=O)[O-])c(-n3ccc(C(=O)N4CCN(CCc5ccccc5)CC4)c3)cc21` [Example 20, 1-Carboxymethyl-6-nitro-7-(3-(4-(2-phenylethyl)-1-piperazinyl-carbonyl)-1-pyrrolyl)quinoxaline-2,3(1H, 4H)-dione] was > 250 °C (dec.). On the same count and under the same terms, to `O=C(O)Cn1c(=O)c(=O)[nH]c2cc([N+](=O)[O-])c(-n3ccc(C(=O)NCCCc4ccccc4)c3)cc21` [Example 21, 1-Carboxymethyl-6-nitro-7-(3-(3-phenylpropylcarbamoyl)-1-pyrrolyl)quinoxaline-2,3(1H,4H)-dione] belongs 224 to 227 °C (dec.); to `O=C(O)Cn1c(=O)c(=O)[nH]c2cc([N+](=O)[O-])c(-n3ccc(C(=O)NCc4ccncc4)c3)cc21` [Example 22, 1-Carboxymethyl-6-nitro-7-(3-(4-pyridinylmethylcarbamoyl)-1-pyrrolyl)quinoxaline-2,3(1H,4H)-dione], above 300 °C.

The test system of the next data set is AMPA receptor. In words: Binding of 3H-AMPA to rat cerebral membrane material. The note with it: compared with 1-(ethoxycarbonylmethyl)-7-(3-formyl-1-pyrrolyl)-6-nitroquinoxaline-2,3(1H,4H)-dione. Here is the method:
The pharmacological activity of the compounds I was investigated on isolated membrane material from rat cerebra. For this purpose, the membrane material was treated in the presence of the compounds according to the invention with the radiolabeled substance ^3H-2-amino-3-hydroxy-5-methyl-4-isoxazolepropionic acid (^3H-AMPA), [^3H]-glycine or [^3H]-kainate which bind to specific receptors (AMPA, NMDA or kainate receptors). The radioactivity of the treated membranes was then measured by scintillation counting. It was possible to determine from the bound radioactivity the amounts of bound ^3H-AMPA, [^3H]-glycine or [^3H]-kainate, or in each case the displaced amounts of these radiolabeled substances. […]
To prepare the membrane material, freshly removed rat cerebra were homogenized together with 15 times the volume of a buffer solution A composed of 30 mM tris(hydroxymethyl)methylamine hydrochloride (TRIS-HCl) and 0.5 mM ethylenediaminetetraacetic acid (EDTA), pH 7.4, using an Ultra-Turrax^R. The suspension was centrifuged at 48000 g for 20 min. […] After measurement of the radioactivity of the bound ^3H-AMPA in the membrane material by scintillation counting, the KI was determined by regression analysis of the displacement plots.
Regarding `CCOC(=O)Cn1c(=O)c(=O)[nH]c2cc([N+](=O)[O-])c(-n3ccc(C(=O)O)c3)cc21` [Example 2, 7-(3-Carboxy-1-pyrrolyl)-1-(ethoxycarbonylmethyl)-6-nitroquin-oxaline-2,3(1H,4H)-dione], the “activity in 3H-AMPA binding relative to the closely related aldehyde (Example 80 in EP 572 852)” value is given as “distinctly more active”.

The same data set, now with this note: isolated membrane material from rat cerebra, 3H-AMPA, incubated on ice for 60 min; read-out: kI (dissociation constant, displacement of 3H-AMPA).
For the compound `CCOC(=O)Cn1c(=O)c(=O)[nH]c2cc([N+](=O)[O-])c(-n3ccc(C(=O)O)c3)cc21` [Example 2, 7-(3-Carboxy-1-pyrrolyl)-1-(ethoxycarbonylmethyl)-6-nitroquin-oxaline-2,3(1H,4H)-dione], the Ki was below 10 µM.
